Test results reported in PubChem BioAssay AID977627 (Broad Institute, 2014).
Records with an inconclusive call do not appear.

Tested on: E. coli H38 humanized ribosome GFP strain, fluorescence, 24 h
Test: E. coli strain growth, wild-type against H38 humanized mutant – H38 mutant GFP vs wild-type RFP, cherry-pick, dose response (AID 977627)
Settings: measured here: total growth OD600

Compound	AC50 [µM]
CC1(Cc2ccccc2C#N)C(=O)Nc2cc(-c3ccccc3Cl)ccc21 (configuration not stated)	41.9
COC(=O)c1c(NC(=O)CCC(=O)O)sc(Cc2ccccc2)c1C	> 100
